Experiments:
[1] = test system: methane production in rumen fluid; experiment: Rumen in vitro (RIV) assay, methane production from rumen fluid incubations; assay type: cell-based, cattle; settings: Bos taurus, read-out: RIV % methane reduction +/− SD
In short: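 Rumen fluid from two fistulated cattle diluted 12 ml in 48 ml buffer with ryegrass substrate, incubated in sealed bottles at 39° C for 24-48 h in duplicate. Inhibitors added in DMF (stocks 1000-fold above highest assay level); total gas, methane and H2 measured automatically; 30 μM BES positive control, no-inhibitor negative control.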

[2] = test system: methane emissions from sheep; experiment: Example 1: in vivo study on sheep methane emissions (respiration chambers, once-daily drench); settings: once-daily drenching, 121.3 mg/day, average of 3 sheep
Protocol: The trial for testing the effects of Compound 19 on methane emissions from sheep over a 96 hour period in methane measurement chambers was approved by the Grasslands Animal Ethics Committee, and the use of the compounds in animals by the New Zealand Food Safety Authority, as required under ACVM legislation. Three sheep were used for each Compound 19 treatment group. The animals received a general-purpose diet (GP) at 1.5× maintenance energy requirements throughout the trials consisting of 500 g hay, 100 g soy bean meal, 290 g barley, 100 g molasses and 10 g mineral mix. During the time in the respiration chambers the animals had free access to water, with the feed offered twice a day at approximately 9:00 and 16:00 h in equal amounts. Feed refusals were weighed.
The animals were adapted to GP diet for 14 days prior to entering the methane measurement chambers. Rumen contents were sampled by stomach tubing before methane emissions were measured in the respiration chambers and the day after being released from the chambers to allow for the future examination of any effects on volatile fatty acids (VFAs). Rumen samples from stomach tubing were immediately subsampled for short chain fatty acid (SCFA) analysis (1.8 ml). The samples were centrifuged (20,000 g, 10 min, 4° C.). […] SCFA were analysed by a HP 6890 gas chromatograph (Attwood et al., 1998).
After the 14-day acclimatisation period, methane emissions were measured in open circuit respiration chambers as described in Chapter 1 of the technical manual on respiration chamber design (http://www.globalresearchalliance.org/wp-content/uploads/2012/03/GRA-MAN-Facility-BestPract-2012-ch13.pdf). Dry matter intake (DMI, kg/d) was recorded during methane measurements from the weight difference of feed offered and refused. […]
Methane gas outputs for the 96-hour period (first 24 hours for background measurements (Period 1), followed by three days of dosing) in open circuit respiration chambers were determined and are summarised in Table 1.

female Swiss mice = experiment: Toxicity testing in mice according to OECD 423; assay type: in vivo; settings: 300 mg/kg, single dose by oral gavage in corn oil, observed 14 days
Protocol: The potential toxicology of Compound 19 was tested according to OECD 423. Mice testing used two groups with three mice (female Swiss mice, non-pregnant), all at approximately 8-9 weeks of age. On the day of testing, food was withdrawn 1-2 hours prior to dosing. Following fasting, the animals were weighed and the test substances administered. Access to food was resumed 1-2 hours after administration of the compounds. The compounds were administered in a single dose by oral gavage in corn oil (maximum of 0.3 ml per dose) at the selected dose and the time recorded. The mice were observed individually after dosing at least once during the first 30 minutes, periodically over the first 24 hours, with special attention given to the first 4 hours, and then daily thereafter for a total of 14 days. The mice were weighed every seven days (0, 7 and 14 days). All observations were systematically recorded for each individual animal. These observations included (if present): tremors, convulsions, salivation, diarrhoea, lethargy, sleep, coma, and changes in fur, skin, eyes, mucus membranes, respiration, motor activity and behaviour.

[3] = test system: methane emissions from sheep; experiment: Example 2: in vivo study on sheep methane emissions (respiration chambers, dosing in feed twice daily); settings: for CH4 Inhibition [%] Average Days 1-3: Average Days 1-3, dose mg/day: Compound 60 412, 69 311, 67 414, 64 344
Source text: (§1) The trial for testing the effects of Compound 60, Compound 69, Compound 67 and Compound 64 on methane emissions from sheep over a 96-hour period in methane measurement chambers was approved by the Grasslands Animal Ethics Committee. Three sheep were used for each Compound 60 and Compound 69 treatment group and six sheep were used for each Compound 67 and Compound 64 treatment group. The animals received a general-purpose diet (GP) at 1.5× maintenance energy requirements throughout the trials consisting of 500 g hay, 100 g soybean meal, 290 g barley, 100 g molasses and 10 g mineral mix. During the time in the respiration chambers the animals had free access to water, with the feed offered twice a day at approximately 9:00 and 16:00 h in equal amounts. Feed refusals were weighed.
(§2) The animals were adapted to GP diet for 14 days prior to entering the methane measurement chambers. Rumen contents were sampled by stomach tubing before methane emissions were measured in the respiration chambers and the day after being released from the chambers to allow for the future examination of any effects on volatile fatty acids (VFAs). Rumen samples from stomach tubing were immediately subsampled for short chain fatty acid (SCFA) analysis (1.8 ml). The samples were centrifuged (20,000 g, 10 min, 4° C.). An aliquot of 0.9 ml of the supernatant was collected into 0.1 ml of internal standard (19.8 mM ethylbutyrate in 20% v/v phosphoric acid) for SCFA analysis and stored at −20° C. SCFA samples were thawed and centrifuged (20,000 g, 10 min, 4° C.) and 800 μl of the supernatant was collected into a crimp cap glass vial. SCFA were analysed by a HP 6890 gas chromatograph (Attwood et al., 1998).
After the 14-day acclimatisation period, methane emissions were measured in open circuit respiration chambers as described in Chapter 1 of the technical manual on respiration chamber design (http://www.globalresearchalliance.org/wp-content/uploads/2012/03/GRA-MAN-Facility-BestPract-2012-ch13.pdf). Dry matter intake (DMI, kg/d) was recorded during methane measurements from the weight difference of feed offered and refused. The first day in the chambers (24-hour period; Period 1) served as a control for each animal. For the next three days the sheep received Compound 60, Compound 69, Compound 67 and Compound 64 at 412, 311, 414 and 344 mg per day, respectively (72-hour period; Period 2).
Methane gas outputs for the 96-hour period (first 24 hours for background measurements (Period 1), followed by three days of dosing (Period 2)) in open circuit respiration chambers were determined and are summarised in Table 2.

[4] = test system: methane emissions from cattle; experiment: Example 3: in vivo cattle trial on methane emissions (respiration chambers, dosing in feed twice daily)
Source text: as §1, with “various doses of” for “Compound 60, Compound 69, Compound 67 and”, “cattle” for “sheep”, “four 48-hour periods” for “a 96-hour period”, “Four cattle (Friesian dairy heifers, approximately 400 kg)” for “Three sheep”, “of two” for “Compound 60 and Compound 69 treatment group and six sheep were used for each Compound 67 and”, “groups.” for “group.”
as §2
After the 14-day acclimatisation period, methane emissions were measured in open circuit respiration chambers as described in Chapter 1 of the technical manual on respiration chamber design (http://www.globalresearchalliance.org/wp-content/uploads/2012/03/GRA-MAN-Facility-BestPract-012-ch13.pdf). Dry matter intake (DMI, kg/d) was recorded during methane measurements from the weight difference of feed offered and refused. Chamber measurements were made once a week for five weeks. The first period in the chambers (48-hour period; Period 1) served as a control for each animal. […]
Methane gas outputs for the four 48-hour treatment periods (Periods 2-5) in open circuit respiration chambers were determined and are summarised in Table 1. There were little or no feed refusals.

[5] = Day 1, dose mg/day: Compound 60 412, 69 311, 67 414, 64 344
[6] = Day 2, dose mg/day: Compound 60 412, 69 311, 67 414, 64 344
[7] = Day 3, dose mg/day: Compound 60 412, 69 311, 67 414, 64 344

Compound	inhibition at 2 µM [1]	inhibition at 10 µM [1]	inhibition at 50 µM [1]	CH4 Inhibition [%] ([2]; Day 1)	CH4 Inhibition [%] ([2]; Day 2)	CH4 Inhibition [%] ([2]; Day 3)	adverse effects (OECD 423) (female Swiss mice)	CH4 Inhibition [%] Average Days 1-3 [3]	CH4 Inhibition [%] [3, 5]	CH4 Inhibition [%] [3, 6]	CH4 Inhibition [%] [3, 7]	CH4 Inhibition [%] ([4]; High dose group, Period 2, 150 mg/day)	CH4 Inhibition [%] ([4]; High dose group, Period 3, 450 mg/day)	CH4 Inhibition [%] ([4]; High dose group, Period 4, 450 mg/day)	CH4 Inhibition [%] ([4]; High dose group, Period 5, 450 mg/day)	CH4 Inhibition [%] ([4]; Low dose group, Period 2, 50 mg/day)	CH4 Inhibition [%] ([4]; Low dose group, Period 3, 300 mg/day)	CH4 Inhibition [%] ([4]; Low dose group, Period 4, 300 mg/day)	CH4 Inhibition [%] ([4]; Low dose group, Period 5, 300 mg/day)
O=C(O)CCC(=O)N1N=C(c2ccc(-c3ccc(Cl)cc3)cc2)CC1c1ccc2nccnc2c1 (stereo not shown) [Compound 19, 4-(3-(4′-Chloro-[1,1′-biphenyl]-4-yl)-5-(quinoxalin-6-yl)-4,5-dihydro-1H-pyrazol-1-yl)-4-oxobutanoic acid]	5.3 ± 0.6%	83.7 ± 0.6%	91.1 ± 0.3%	−6.5%	8.9%	11.4%	No adverse effects												
CC(C)S(=O)(=O)NC(=O)CCC(=O)N1N=C(c2ccc(-c3ccccc3)cc2)CC1c1ccc2nccnc2c1 (stereo not shown) [Compound 69, 4-(3-([1,1′-Biphenyl]-4-yl)-5-(quinoxalin-6-yl)-4,5-dihydro-1H-pyrazol-1-yl)-N-(isopropylsulfonyl)-4-oxobutanamide]	37.6 ± 5.6%	92.8 ± 1.8%						23.5%	11.9%	26.3%	32.4%								
O=C(O)CCC(=O)N1N=C(c2ccc(-c3ccc(OC(F)(F)F)c(F)c3)cc2)CC1c1ccc2nccnc2c1 (stereo not shown) [Compound 67, 4-(3-(3′-Fluoro-4′-(trifluoromethoxy)-[1,1′-biphenyl]-4-yl)-5-(quinoxalin-6-yl)-4,5-dihydro-1H-pyrazol-1-yl)-4-oxobutanoic acid]	51.8 ± 8.4%	92.4 ± 1.5%						36.5%	24.2%	36.7%	48.6%								
O=C(O)c1cccc(N2N=C(c3ccc(Cl)cc3)CC2c2ccc3nccnc3c2)c1 (stereo not shown) [Compound 60, 3-(3-(4-Chlorophenyl)-5-(quinoxalin-6-yl)-4,5-dihydro-1H-pyrazol-1-yl)benzoic acid]	16.1 ± 0.5%	90.9 ± 1.2%	97.7 ± 0.6%					26.2%	26.3%	20.9%	31.2%								
CC(C)Oc1ccc(-c2ccc(C3=NN(C(=O)CCC(=O)O)C(c4ccc5nccnc5c4)C3)cc2)cc1 (stereo not shown) [Compound 64, 4-(3-(4′-Isopropoxy-[1,1′-biphenyl]-4-yl)-5-(quinoxalin-6-yl)-4,5-dihydro-1H-pyrazol-1-yl)-4-oxobutanoic acid]	81%	97.5%						85.8%	81.9%	85.6%	89.8%	1.9 ± 5.2%	15.6 ± 11.7%	0.5 ± 5.8%	5.6 ± 3.0%	−4.7 ± 2.9%	20.2 ± 9.8%	2.5 ± 4.6%	−1.8 ± 4.0%
